In patent US20160074401A1, “COMPOSITIONS AND METHODS UTILIZING PHOSPHODIESTERASE INHIBITORS TO TREAT BLAST-INDUCED TINNITUS AND/OR HEARING LOSS” (WAYNE STATE UNIVERSITY, priority 2013, published 2016):

Key:
[1] = system: focal cerebral cryolesion; conditions: treatment following cryolesion; cited from earlier work
[2] = system: rats exposed to embolic stroke; conditions: sildenafil treated rats; cited from earlier work
[3] = system: blast-exposed Sprague Dawley rats (wave 1 amplitude); assay: ABR wave 1 (P1N1) amplitude after blast exposure; type: in vivo, rat; conditions: 28 kHz
Protocol: ABRs were recorded to evaluate hearing thresholds. Each rat was anesthetized using a mixture of air (0.41/min) and isoflurane (2-3%, v/v) and placed in a prone position with its head fixed to a stereotaxic frame. Body temperature was maintained using a warming blanket connected to a thermostatic controller (Harvard Instruments, Holliston, Mass.). Acoustic stimuli consisted of 0.1 ms clicks or 10 ms pure-tone bursts presented at 4, 8, 12, 16, 20, or 28 kHz and delivered through a speaker tube inserted into the external auditory canal. Three subcutaneous platinum-coated tungsten electrodes were used to record ABR waveforms, with the reference electrode inserted below the pinna ipsilateral to the speaker tube, the grounding electrode inserted below the contralateral pinna, and the recording electrode inserted at the vertex. […] Data were recorded using BioSigRP® and SigGenRP® software (TDT, Alachua, Fla.) installed on an IBM computer connected to System 3 TDT workstation.
There is a significant reduction in wave 1 amplitudes in human subjects suffering from tinnitus despite a seemingly normal audiogram. In order to assess the possibility of underlying wave 1 amplitude reduction despite recovery of ABR thresholds, wave 1 amplitudes for 28 kHz frequency were measured at pre-blast and at 6 weeks post-blast and compared between the Treated and Untreated groups (FIGS. 7A and 7B). […]

[4] = system: Neurospheres isolated from the subventricular zone of adult rat brains; conditions: neurospheres treated with sildenafil; cited from earlier work
[5] = system: blast-exposed Sprague Dawley rats (blast-induced tinnitus); assay: Gap-detection testing (acoustic startle) for blast-induced tinnitus
Excerpt: Thirty adult Sprague Dawley rats (110 days old, 250-300 g) were purchased from Charles River Laboratories (Wilmington, Mass.).
Animals underwent 8 rounds of behavior testing to stabilize baseline Gap-detection and PPI performance prior to blast or sham-blast exposure. […] Briefly, each rat was placed in a custom-built polycarbonate restrainer (FIG. 1) and set inside a lit startle monitor cabinet equipped with two ceiling speakers for background sound/prepulses and startle stimuli. Restrainers were mounted on top of a platform connected to a piezoelectric transducer, which measured downward startle force. Acoustic stimuli and startle force were calibrated using a Newton impulse calibrator (Kinder Scientific) and a microphone (Model 4016; ACO Pacific, Belmont, Calif.).
During the Gap-detection procedure, rats were exposed to constant 60 dB sound pressure level (SPL) background noise consisting of 2 kHz bandpass signals from 2-4 kHz, 6-8 kHz, 8-10 kHz, 10-12 kHz, 14-16 kHz, 18-20 kHz, or 26-28 kHz, or BBN (2-30 kHz). They were subjected to either a 50 ms white noise burst startle stimulus (startle only; dominating plateau from 3-37 kHz with energy up to 97.5 kHz) presented at 115 dB or the startle stimulus preceded by a 40 ms silent period beginning 90 ms before the startle stimulus (Gap). For each testing session, rats were presented 8 times with the startle only and Gap conditions for each frequency bandpass signal and BBN. The PPI procedure was identical to the Gap-detection procedure except that no background sound was presented. Rats were subjected to either the startle stimulus alone (startle only) or the startle stimulus preceded by a 40 ms prepulse beginning 90 ms before the startle stimulus. Prepulses (60 dB, SPL) consisted of the same frequencies as those used for background noise.
A two-minute acclimatization period was given at the beginning of each session, followed by two startle stimuli presented without background sound to trigger any initial, exaggerated startle reflexes. Gap-detection and PPI testing sessions lasted a little over thirty minutes each. […]

[6] = upon oral intake; cited from earlier work

Row | SMILES | Effects after focal cerebral cryolesion [1] | Effects after embolic stroke [2] | Wave 1 (P1N1) amplitude, Treated vs Untreated ([3]; exposed ear, 6 weeks post-blast) | Decrease of wave 1 amplitude ([3]; 6 weeks after triple blast exposure, Treated group (same in Untreated)) [%] | cGMP concentration [4] | Gap-detection in Sham group (drug, no blast): tinnitus symptoms produced by the drug ([5]; Sham group: sildenafil 10 mg/kg, no blast exposure, throughout the study) | Effect on high-frequency tinnitus (overall) ([5]; high-frequency (26-28 kHz) tinnitus, reemerged afterwards) | Duration of therapeutic effect on blast-induced tinnitus (Gap-detection) ([5]; sildenafil 10 mg/kg oral gavage, two 7-day rounds) | Tmax [6] [min]
1 | CCCOc1ccccc1-c1nc2nn[nH]c2c(=O)[nH]1 [Zaprinast] | improved functional recovery, reduced oxidative stress, and prevention of apoptotic cell death |  |  |  |  |  |  |  | 
2 | CCCc1nn(C)c2c(=O)[nH]c(-c3cc(S(=O)(=O)N4CCN(C)CC4)ccc3OCC)nc12 [sildenafil, 1-[4-ethoxy-3-(6,7-dihydro-1-methyl-7-oxo-3-propyl-1H-pyrazolo[4,3-d]pyrimidin-5-yl)phenylsulfonyl]-4-methylpiperazine] |  | improvement in angiogenesis, selective increase in cerebral blood flow, and enhanced neurological functional recovery up to 6 weeks post-injury | no significant differences between the two groups at time-matched points | 45 | increased cGMP concentration | the drug itself did not produce tinnitus symptoms | suppressed high-frequency tinnitus from 3-6 weeks post-blast | maintained up to week 6 | ≤ 11
